Measured values: US9006450B2 (Boehringer Ingelheim International GmbH, priority 2010, dated 2015)

target: T1, human ACC2 (Homo sapiens, UniProt O00763); assay: ACC2 assay, spectrophotometric 384 well assay (NADH-linked, coupled lactate dehydrogenase/pyruvate kinase); assay type: biochemical; settings: ACC2 assay, hACC2 construct lacking 128 N-terminal amino acids, 25° C., 340 nm; read-out: IC50
T1 construct: made in house; host or cells: insect cells (baculoviral expression system)
Summary of the method: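 ADP output tracked via pyruvate kinase/lactate dehydrogenase NADH oxidation, slope at 340 nm over 15 min, 25° C, with 500 μM ATP and 200 μM each acetyl-CoA and NADH. Enzyme: insect-cell-expressed human ACC2, N-terminal 128 residues deleted; pH 7.5 Tris with citrate, KHCO3. IC50 from four-parameter regression versus vehicle and no-acetyl-CoA controls.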

T1 sequence (O00763 129-2458 limits assumed): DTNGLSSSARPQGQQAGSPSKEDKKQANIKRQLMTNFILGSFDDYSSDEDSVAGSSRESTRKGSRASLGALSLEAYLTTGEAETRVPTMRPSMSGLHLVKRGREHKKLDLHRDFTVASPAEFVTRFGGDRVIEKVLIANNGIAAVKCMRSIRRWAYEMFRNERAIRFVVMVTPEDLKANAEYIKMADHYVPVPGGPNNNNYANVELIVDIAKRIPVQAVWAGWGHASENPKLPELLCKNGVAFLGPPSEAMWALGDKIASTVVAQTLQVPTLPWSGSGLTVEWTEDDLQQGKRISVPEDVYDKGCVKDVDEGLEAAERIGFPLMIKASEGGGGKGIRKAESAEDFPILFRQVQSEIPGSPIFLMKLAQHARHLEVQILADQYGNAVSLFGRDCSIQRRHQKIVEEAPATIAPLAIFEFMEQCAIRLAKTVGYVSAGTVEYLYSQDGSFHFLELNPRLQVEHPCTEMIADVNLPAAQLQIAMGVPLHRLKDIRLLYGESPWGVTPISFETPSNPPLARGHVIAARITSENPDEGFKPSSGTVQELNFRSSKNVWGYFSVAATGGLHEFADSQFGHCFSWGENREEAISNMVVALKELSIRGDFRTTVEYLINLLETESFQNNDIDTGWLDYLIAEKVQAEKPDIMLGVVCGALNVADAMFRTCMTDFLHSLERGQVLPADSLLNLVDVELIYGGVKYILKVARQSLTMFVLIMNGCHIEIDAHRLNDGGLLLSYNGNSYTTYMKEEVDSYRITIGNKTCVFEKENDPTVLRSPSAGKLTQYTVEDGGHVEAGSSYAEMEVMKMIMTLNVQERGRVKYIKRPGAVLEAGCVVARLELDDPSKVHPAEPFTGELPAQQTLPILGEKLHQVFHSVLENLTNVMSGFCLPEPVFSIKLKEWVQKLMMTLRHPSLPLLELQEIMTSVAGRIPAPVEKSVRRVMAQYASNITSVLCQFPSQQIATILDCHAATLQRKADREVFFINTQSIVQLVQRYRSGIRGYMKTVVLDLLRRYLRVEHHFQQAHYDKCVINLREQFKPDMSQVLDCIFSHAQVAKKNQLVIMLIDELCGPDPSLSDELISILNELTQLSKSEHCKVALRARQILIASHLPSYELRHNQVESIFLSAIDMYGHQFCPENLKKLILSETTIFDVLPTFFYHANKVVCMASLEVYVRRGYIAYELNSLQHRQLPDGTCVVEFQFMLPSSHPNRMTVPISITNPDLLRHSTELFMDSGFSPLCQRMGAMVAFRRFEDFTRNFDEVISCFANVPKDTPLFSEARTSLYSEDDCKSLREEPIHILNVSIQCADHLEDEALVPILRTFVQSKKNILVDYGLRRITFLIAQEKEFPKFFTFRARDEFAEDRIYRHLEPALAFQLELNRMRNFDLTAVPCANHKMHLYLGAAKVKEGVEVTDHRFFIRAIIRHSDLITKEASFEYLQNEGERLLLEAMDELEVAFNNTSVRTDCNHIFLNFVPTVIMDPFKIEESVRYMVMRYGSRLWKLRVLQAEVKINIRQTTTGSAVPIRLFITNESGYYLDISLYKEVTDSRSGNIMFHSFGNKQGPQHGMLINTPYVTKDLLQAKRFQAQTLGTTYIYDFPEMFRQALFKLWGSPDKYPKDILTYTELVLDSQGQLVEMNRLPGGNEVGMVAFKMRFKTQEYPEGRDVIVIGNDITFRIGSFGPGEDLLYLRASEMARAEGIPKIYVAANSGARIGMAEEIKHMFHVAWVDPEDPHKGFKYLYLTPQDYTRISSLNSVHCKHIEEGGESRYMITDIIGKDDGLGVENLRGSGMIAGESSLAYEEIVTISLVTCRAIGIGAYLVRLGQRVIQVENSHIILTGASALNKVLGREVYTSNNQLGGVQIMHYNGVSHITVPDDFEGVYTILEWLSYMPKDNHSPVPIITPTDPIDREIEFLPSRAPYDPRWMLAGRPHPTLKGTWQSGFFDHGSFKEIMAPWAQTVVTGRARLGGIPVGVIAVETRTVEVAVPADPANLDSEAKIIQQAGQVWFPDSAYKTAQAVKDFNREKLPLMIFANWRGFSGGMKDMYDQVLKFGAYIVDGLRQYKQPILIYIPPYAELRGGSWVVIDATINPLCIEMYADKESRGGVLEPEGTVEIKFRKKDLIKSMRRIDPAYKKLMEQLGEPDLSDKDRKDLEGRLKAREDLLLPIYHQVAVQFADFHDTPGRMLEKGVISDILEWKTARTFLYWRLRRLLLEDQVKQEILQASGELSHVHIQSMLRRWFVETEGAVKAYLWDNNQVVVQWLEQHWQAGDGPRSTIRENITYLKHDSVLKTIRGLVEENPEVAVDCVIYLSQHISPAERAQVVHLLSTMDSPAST

Compound	IC50
CCNc1ccc(N2CCC(c3ccc([C@H](C)NC(C)=O)cc3)CC2)cc1 [Example 24.2]	1900 nM
CC(=O)N[C@@H](C)c1ccc(C2CCN(c3ccc(NCC(C)C)cc3)CC2)cc1 [Example 24.3]	1100 nM
CC(=O)N[C@@H](C)c1ccc(C2CCN(c3ccc(NCC4CC4)cc3)CC2)cc1 [Example 24.4]	1300 nM
CC(=O)N[C@@H](C)c1ccc(C2CCN(c3nc(C(C)C)no3)CC2)cc1 [Example 25.1, (S)—N-(1-{4-[1-(3-Isopropyl-[1,2,4]oxadiazol-5-yl)-piperidin-4-yl]-phenyl}-ethyl)-acetamide]	2700 nM
CCc1noc(N2CCC(c3ccc([C@H](C)NC(C)=O)cc3)CC2)n1 [Example 25.2]	10300 nM
CC(=O)N[C@@H](C)c1ccc(C2CCN(c3nc(-c4ccccc4)no3)CC2)cc1 [Example 25.3]	950 nM
CC(=O)N[C@@H](C)c1ccc(C2CCN(c3noc(-c4ccccc4)n3)CC2)cc1 [Example 26.1, (S)—N-(1-{4-[1-(5-Phenyl-[1,2,4]oxadiazol-3-yl)-piperidin-4-yl]-phenyl}-ethyl)-acetamide]	1900 nM
CCc1nc(N2CCC(c3ccc([C@H](C)NC(C)=O)cc3)CC2)no1 [Example 26.2]	4100 nM
CC(=O)N[C@@H](C)c1ccc(C2CCN(c3noc(C(C)C)n3)CC2)cc1 [Example 26.3]	710 nM
COCc1nc(N2CCC(c3ccc([C@H](C)NC(C)=O)cc3)CC2)no1 [Example 26.4]	9100 nM
CC(=O)N[C@@H](C)c1ccc(C2CCN(c3ccc(OCC4CC4C)cc3)CC2)cc1 (stereo partly drawn) [Example 27.1, N-((1S)-1-(4-(1-(4-((2-methylcyclopropyl)methoxy)phenyl)-piperidin-4-yl)phenyl)-ethyl)acetamide]	150 nM
CC(=O)N[C@@H](C)c1ccc(C2CCN(c3ccc(OCC4(CC#N)CC4)cc3)CC2)cc1 [Example 27.3]	860 nM
CC(=O)N[C@@H](C)c1ccc(C2CCN(c3cccc(C(=O)O)c3)CC2)cc1 [Example 28.1, (S)-3-(4-(4-(1-Acetamidoethyl)phenyl)piperidin-1-yl)benzoic acid]	9300 nM
CC(=O)N[C@@H](C)c1ccc(C2CCN(c3cccc(C(=O)N4CCc5ccccc5C4)c3)CC2)cc1 [Example 29.1, (S)—N-(1-(4-(1-(3-(1,2,3,4-Tetrahydroisoquinoline-2-carbonyl)phenyl)piperidin-4-yl)phenyl)ethyl)acetamide]	1600 nM
CC(=O)N[C@@H](C)c1ccc(C2CCN(c3cccc(C(=O)N4Cc5ccccc5C4)c3)CC2)cc1 [Example 29.2]	1700 nM
CCNC(=O)c1cccc(N2CCC(c3ccc([C@H](C)NC(C)=O)cc3)CC2)c1 [Example 29.3]	6700 nM

Compound	IC50
CCOc1ccc(N2CCC(c3ccc([C@H](C)NC(=O)CC(C)=O)cc3)CC2)cc1 [Example 30.1]	2700 nM
CCOc1ccc(N2CCC(c3ccc([C@H](C)NC(=O)CC(=O)OC)cc3)CC2)cc1 [Example 31.1, (S)-Methyl 3-(1-(4-(1-(4-Ethoxyphenyl)piperidin-4-yl)phenyl)ethylamino)-3-oxopropanoate]	1600 nM
CCOc1ccc(N2CCC(c3ccc([C@H](C)NC(=O)CC(=O)O)cc3)CC2)cc1 [Example 32.1, (S)-3-(1-(4-(1-(4-Ethoxyphenyl)piperidin-4-yl)phenyl)ethylamino)-3-oxopropanoic Acid]	7200 nM
CCOc1ccc(N2CCC(c3ccc([C@H](C)NC(=O)CC(N)=O)cc3)CC2)cc1 [Example 33.1, (S)—N-(1-{4-[1-(4-Ethoxyphenyl)piperidin-4-yl]phenyl}ethyl)malonamide]	1700 nM
CCOc1ccc(N2CCC(c3ccc([C@H](C)NC(=O)CC(=O)NC)cc3)CC2)cc1 [Example 33.2]	8900 nM
CC(=O)N[C@@H](C)c1ccc(C2CCN(c3cnc(-c4ccccn4)s3)CC2)cc1 [Example 34.1, (S)—N-(1-(4-(1-(2-(Pyridin-2-yl)thiazol-5-yl)piperidin-4-yl)phenyl)ethyl)acetamide]	420 nM
CC(=O)N[C@@H](C)c1ccc(C2CCN(c3csc(-c4ccc(C(F)(F)F)cn4)n3)CC2)cc1 [Example 34.2]	40 nM
CCOc1ccc(N2CCC(c3ccc([C@H](C)NC(=O)CN)cc3)CC2)cc1 [Example 35.1, (S)-2-Amino-N-(1-{4-[1-(4-ethoxyphenyl)piperidin-4-yl]phenyl}ethyl)acetamide]	5400 nM
CCOc1ccc(N2CCC(c3ccc([C@H](C)NC(=O)CN(C)C)cc3)CC2)cc1 [Example 36.1, (S)-2-(Dimethylamino)-N-(1-{4-[1-(4-ethoxyphenyl)piperidin-4-yl]phenyl}ethyl)acetamide]	1600 nM
CCOc1ccc(N2CCC(c3ccc([C@H](C)NC(C)=O)cc3)CC2)c(C(N)=O)c1 [Example 37.1, (S)-2-(4-(4-(1-Acetamidoethyl)phenyl)piperidin-1-yl)-5-ethoxybenzamide]	23100 nM
CCOc1ccc(N2CCC(c3ccc([C@H](C)NC(C)=S)cc3)CC2)cc1 [Example 38.1, (S)-N-(1-(4-(1-(4-Ethoxyphenyl)piperidin-4-yl)phenyl)ethyl)ethanethioamide]	430 nM
CCOc1ccc(N2CCC(c3ccc([C@H](C)NC(C)=S)cc3)CC2)c(F)c1 [Example 38.2]	290 nM
CC(=O)N(C)[C@@H](C)c1ccc(C2CCN(c3ccc(OCC4CC4)cc3)CC2)cc1 [Example 39.1, (S)—N-(1-(4-(1-(4-Cyclopropylmethoxyphenyl)piperidin-4-yl)phenyl)ethyl)-N-methylacetamide]	12000 nM
CCN(C(C)=O)[C@@H](C)c1ccc(C2CCN(c3ccc(OCC4CC4)cc3)CC2)cc1 [Example 39.2]	1500 nM
CCCOc1ccc(N2CCC(c3ccc([C@H](C)NC(=O)C(F)(F)F)cc3)CC2)c(OC)c1 [Example 40.1, (S)-2,2,2-Trifluoro-N-{1-[4-(1-(2-methoxy-4-propoxyphenyl)piperidin-4-yl)phenyl]-ethyl}acetamide]	290 nM
CCOc1ccc(N2CCC(c3ccc([C@H](C)NC(=O)C(F)(F)F)cc3)CC2)cc1 [Example 40.2]	80 nM
